Laboratory results: PubChem BioAssay AID248 (DTP/NCI, 2004)
Inconclusive results and toxic doses are left out. Rule as the data show it: active = T/C of 150% or more; inactive = T/C below 125%.

System: L1210 leukemia ip in BDF1 mice, survival T/C
Test: NCI In Vivo Anticancer Drug Screen. Data for tumor model L1210 Leukemia (intraperitoneal) in B6D2F1 (BDF1) mice
Details: endpoint: mean survival time, higher = longer survival
Procedure, shortened: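 Survival endpoint. Drug-treated group vs vehicle group, expressed as T divided by C. Tumor passaged by transplantation.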

[1] = dose: 100.0 mg/kg/injection, schedule: Q01DX009 (ip), vehicle: saline with Tween-80
[2] = dose: 200.0 mg/kg/injection, schedule: Q01DX009 (ip), vehicle: saline with Tween-80
[3] = dose: 100.0 mg/kg/injection, schedule: Q04DX003 (ip), vehicle: saline with Tween-80
[4] = dose: 200.0 mg/kg/injection, schedule: Q04DX003 (ip), vehicle: saline with Tween-80
[5] = dose: 400.0 mg/kg/injection, schedule: Q04DX003 (ip), vehicle: saline with Tween-80
[6] = dose: 100.0 mg/kg/injection, schedule: Q01DX009 (ip), vehicle: Klucel (hydroxypropylcellulose) (HPC)
[7] = dose: 200.0 mg/kg/injection, schedule: Q01DX009 (ip), vehicle: Klucel (hydroxypropylcellulose) (HPC)
[8] = dose: 400.0 mg/kg/injection, schedule: Q01DX009 (ip), vehicle: Klucel (hydroxypropylcellulose) (HPC)
[9] = dose: 100.0 mg/kg/injection, schedule: Q04DX003 (ip), vehicle: Klucel (hydroxypropylcellulose) (HPC)
[10] = dose: 200.0 mg/kg/injection, schedule: Q04DX003 (ip), vehicle: Klucel (hydroxypropylcellulose) (HPC)
[11] = dose: 400.0 mg/kg/injection, schedule: Q04DX003 (ip), vehicle: Klucel (hydroxypropylcellulose) (HPC)
[12] = dose: 50.0 mg/kg/injection, schedule: Q01DX001 (ip), vehicle: saline
[13] = dose: 100.0 mg/kg/injection, schedule: Q01DX001 (ip), vehicle: saline
[14] = dose: 200.0 mg/kg/injection, schedule: Q01DX001 (ip), vehicle: saline
[15] = dose: 400.0 mg/kg/injection, schedule: Q01DX001 (ip), vehicle: saline
[16] = dose: 50.0 mg/kg/injection, schedule: Q01DX009 (ip), vehicle: saline
[17] = dose: 100.0 mg/kg/injection, schedule: Q01DX009 (ip), vehicle: saline
[18] = dose: 100.0 mg/kg/injection, schedule: Q04DX002 (ip), vehicle: saline
[19] = dose: 100.0 mg/kg/injection, schedule: Q04DX003 (ip), vehicle: saline
[20] = dose: 200.0 mg/kg/injection, schedule: Q04DX003 (ip), vehicle: saline
[21] = dose: 25.0 mg/kg/injection, schedule: Q01DX009 (ip), vehicle: saline
[22] = dose: 50.0 mg/kg/injection, schedule: Q04DX003 (ip), vehicle: saline

Measured: T/C

CC(=O)c1cccc(C#N)c1
inactive: [1] 100 % of control | [2] 97 % of control | dose: 400.0 mg/kg/injection, schedule: Q01DX009 (ip), vehicle: saline with Tween-80 105 % of control

CCOC(=O)c1ccnc2ccc(O)cc12
inactive: [3] 104 % of control | [4] 96 % of control | [5] 95 % of control

O=C(CC(O)(C(F)(F)F)C(F)(F)F)c1ccc(Cl)c([N+](=O)[O-])c1
inactive: dose: 75.0 mg/kg/injection, schedule: Q01DX009 (ip), vehicle: Klucel (hydroxypropylcellulose) (HPC) 102 % of control | dose: 150.0 mg/kg/injection, schedule: Q01DX009 (ip), vehicle: Klucel (hydroxypropylcellulose) (HPC) 100 % of control

Cc1sc2ccccc2[n+]1CCC(=O)O
inactive: dose: 100.0 mg/kg/injection, schedule: Q01DX009 (ip), vehicle: gum acacia 94 % of control | dose: 100.0 mg/kg/injection, schedule: Q04DX003 (ip), vehicle: gum acacia 95 % of control | dose: 200.0 mg/kg/injection, schedule: Q01DX009 (ip), vehicle: gum acacia 101 % of control | dose: 200.0 mg/kg/injection, schedule: Q04DX003 (ip), vehicle: gum acacia 96 % of control | dose: 400.0 mg/kg/injection, schedule: Q01DX009 (ip), vehicle: gum acacia 100 % of control | dose: 400.0 mg/kg/injection, schedule: Q04DX003 (ip), vehicle: gum acacia 95 % of control

Cc1ccc(N)cc1NC(=O)c1ccccc1
inactive: dose: 100.0 mg/kg/injection, schedule: Q01DX001 (ip), vehicle: carboxymethylcellulose (CMC) 106 % of control | dose: 200.0 mg/kg/injection, schedule: Q01DX001 (ip), vehicle: carboxymethylcellulose (CMC) 94 % of control | dose: 400.0 mg/kg/injection, schedule: Q01DX001 (ip), vehicle: carboxymethylcellulose (CMC) 108 % of control

C=CCc1ccc(OC(=O)Nc2cccc(OC)c2)c(OC)c1
inactive: [6] 106 % of control | [7] 98 % of control | [8] 88 % of control

C/C=C\c1ccc(OC(=O)Nc2cccc(Cl)c2)c(OC)c1
inactive: dose: 100.0 mg/kg/injection, schedule: Q04DX002 (ip), vehicle: Klucel (hydroxypropylcellulose) (HPC) 101 % of control | dose: 200.0 mg/kg/injection, schedule: Q04DX002 (ip), vehicle: Klucel (hydroxypropylcellulose) (HPC) 95 % of control | dose: 400.0 mg/kg/injection, schedule: Q04DX002 (ip), vehicle: Klucel (hydroxypropylcellulose) (HPC) 92 % of control

COc1cc(C=Nc2cccc(C(F)(F)F)c2)ccc1O
inactive: [6] 95 % of control | [9] 102 % of control | [7] 86 % of control | [10] 98 % of control | [8] 101 % of control | [11] 104 % of control

COc1cc(Br)c(CC(=O)c2cn(C(=O)Cc3cc(OC)c(OC)cc3Br)c3ccc(Br)cc23)cc1OC
inactive: [12] 106 % of control | [13] 96 % of control | [14] 102 % of control | [15] 96 % of control

COc1ccc(CNc2ccccc2C(=O)O)cc1OC
inactive: [13] 91 % of control | [15] 103 % of control

O=P(O)(O)C(Cl)(Cl)Cl
inactive: [16] 100 % of control | [17] 96 % of control | [18] 92 % of control | dose: 200.0 mg/kg/injection, schedule: Q01DX009 (ip), vehicle: saline 96 % of control | dose: 200.0 mg/kg/injection, schedule: Q04DX002 (ip), vehicle: saline 99 % of control

C/C=C/S(=O)(=O)c1ccccc1
inactive: dose: 75.0 mg/kg/injection, schedule: Q01DX001 (ip), vehicle: carboxymethylcellulose (CMC) 100 % of control

OC1(C2(O)c3ccccc3Oc3ccccc32)c2ccccc2Oc2ccccc21
inactive: [19] 95 % of control | [20] 95 % of control | dose: 400.0 mg/kg/injection, schedule: Q04DX003 (ip), vehicle: saline 97 % of control

COc1ccc(CN2CCCN(Cc3ccc(OC)cc3OC)C2c2cc(Cl)cc(Cl)c2O)c(OC)c1
inactive: [12] 92 % of control | [13] 97 % of control | [14] 92 % of control | [15] 90 % of control

CC(C)CCN=C(N)N=C(N)N
inactive: [21] 105 % of control | [16] 107 % of control | [17] 104 % of control | [18] 100 % of control

CC1=C(C)Cc2c(-c3ccc(Cl)cc3)oc(-c3ccc(Cl)cc3)c2C1
inactive: [9] 100 % of control | [10] 97 % of control | [11] 94 % of control

Cc1ccc(N=Cc2cc(Cl)cc(Cl)c2O)cc1.Cc1ccc(N=Cc2cc(Cl)cc(Cl)c2O)cc1.[Co]
inactive: [3] 104 % of control | [4] 100 % of control | [5] 114 % of control

CCN(CC)C(=O)Nc1cccc(O)c1
inactive: [3] 94 % of control | [4] 91 % of control | [5] 93 % of control

[N-]=[N+]=CC(=O)OCC(N)C(=O)O (stereo unspecified)
inactive: dose: 100.0 mg/kg/injection, schedule: Q01DX009 (ip), vehicle: water 103 % of control | dose: 200.0 mg/kg/injection, schedule: Q01DX009 (ip), vehicle: water 105 % of control | dose: 400.0 mg/kg/injection, schedule: Q01DX009 (ip), vehicle: water 89 % of control

CCOC(=O)C1CN(C(C)C)C(=O)C1=O (stereo unspecified)
inactive: [12] 100 % of control | [13] 102 % of control | [14] 96 % of control | [15] 114 % of control

CN(c1ccccc1)S(=O)(=O)c1cccc([N+](=O)[O-])c1
inactive: [9] 103 % of control | [10] 94 % of control | [11] 101 % of control

NC1CCC2CCCCC2C1 (stereo unspecified)
inactive: dose: 25.0 mg/kg/injection, schedule: Q01DX009 (ip), vehicle: Klucel (hydroxypropylcellulose) (HPC) 101 % of control | dose: 25.0 mg/kg/injection, schedule: Q04DX003 (ip), vehicle: Klucel (hydroxypropylcellulose) (HPC) 95 % of control | dose: 50.0 mg/kg/injection, schedule: Q01DX009 (ip), vehicle: Klucel (hydroxypropylcellulose) (HPC) 93 % of control | dose: 50.0 mg/kg/injection, schedule: Q04DX003 (ip), vehicle: Klucel (hydroxypropylcellulose) (HPC) 100 % of control | [6] 98 % of control | [9] 94 % of control

Cc1ccccc1OB(Oc1ccccc1C)Oc1ccccc1C
inactive: [13] 101 % of control | [14] 109 % of control | [15] 95 % of control

C#CC[N+](C)(C)CC#C
inactive: [22] 102 % of control | [19] 94 % of control | [20] 93 % of control

CSC(=N)c1cccc(OCCCOc2ccccc2)c1
inactive: dose: 25.0 mg/kg/injection, schedule: Q01DX009 (ip), vehicle: saline with Tween-80 94 % of control | dose: 50.0 mg/kg/injection, schedule: Q01DX009 (ip), vehicle: saline with Tween-80 90 % of control | [1] 90 % of control | [2] 88 % of control

OCCN1CCN(Cc2cccc3ccccc23)CC1
inactive: [21] 112 % of control | dose: 25.0 mg/kg/injection, schedule: Q04DX003 (ip), vehicle: saline 101 % of control | [16] 98 % of control | [22] 102 % of control | [13] 103 % of control | [17] 102 % of control | [19] 98 % of control

S=C(NCc1ccco1)Nc1ccccc1Cl
inactive: [6] 100 % of control | [7] 93 % of control
